Results taken from ChEMBL document CHEMBL4819030, “Microbial Transformation of Broussochalcones A and B by Aspergillus niger” (J Nat Prod, 2021).
Activity calls are given as the source filed them. No cut-off for these calls is given here.

How the values were obtained:
Type in all cases: functional, cell-based
MCF7 = assay: Cytotoxicity against human MCF7 cells incubated for 24 hrs by MTT assay
[1] = (§1) Cytotoxicity against human A375P cells incubated for 24 hrs by MTT assay
HT-29 = assay: Cytotoxicity against human HT29 cells incubated for 24 hrs by MTT assay
HepG2 = assay: Cytotoxicity against human HepG2 cells incubated for 48 hrs by MTT assay
A549 = assay: Cytotoxicity against human A549 cells incubated for 48 hrs by MTT assay
A375P = assay: as §1

Compound	IC50 (MCF7; MCF7, 24 h) [µM]	IC50 [1] [µM]	IC50 (HT-29; HT-29, 24 h) [µM]	Activity (HepG2)	IC50 (A549; A549, 48 h) [µM]	Activity (MCF7)	Activity (A375P)	Activity (HT-29)	Activity (A549)
CC(C)=CCc1cc(C(=O)CCc2ccc(O)c(O)c2)c(O)cc1O	3.8	3.8	3.8	inactive	3.8				
CC1(C)O[C@@H]1Cc1cc(C(=O)CCc2ccc(O)c(O)c2)c(O)cc1O				inactive		inactive	inactive	inactive	inactive
CC1(C)O[C@H]1Cc1cc(C(=O)/C=C/c2ccc(O)cc2)c(O)cc1O				inactive		inactive	inactive	inactive	inactive
CC(C)(O)[C@H](O)Cc1cc(C(=O)/C=C/c2ccc(O)cc2)c(O)cc1O				inactive		inactive	inactive	inactive	inactive
CC1(C)O[C@H]1Cc1cc(C(=O)/C=C/c2ccc(O)c(O)c2)c(O)cc1O				inactive		inactive	inactive	inactive	inactive
CC1(C)O[C@@H]1Cc1cc(C(=O)CCc2ccc(O)cc2)c(O)cc1O				inactive		inactive	inactive	inactive	inactive
CC(C)(O)[C@@H](O)Cc1cc(C(=O)CCc2ccc(O)c(O)c2)c(O)cc1O				inactive		inactive	inactive	inactive	inactive
CC(C)(O)[C@H](O)Cc1cc(C(=O)/C=C/c2ccc(O)c(O)c2)c(O)cc1O				inactive		inactive	inactive	inactive	inactive
CC(C)(O)[C@@H](O)Cc1cc(C(=O)CCc2ccc(O)cc2)c(O)cc1O				inactive		inactive	inactive	inactive	inactive
CC(C)(O)[C@H]1Cc2cc(C(=O)CCc3ccc(O)cc3)c(O)cc2O1				inactive		inactive	inactive	inactive	inactive
